Reference: patent US7935726B1, “Tricyclic pyrones” (Kansas State University Research Foundation, priority 1999, dated 2011)
One block for each molecule: values may come before it.

Assays:
[1] = target: T1, CETP (Homo sapiens, UniProt P11597); assay: inhibition of CETP; format: biochemical
T1 sequence (P11597 18-493): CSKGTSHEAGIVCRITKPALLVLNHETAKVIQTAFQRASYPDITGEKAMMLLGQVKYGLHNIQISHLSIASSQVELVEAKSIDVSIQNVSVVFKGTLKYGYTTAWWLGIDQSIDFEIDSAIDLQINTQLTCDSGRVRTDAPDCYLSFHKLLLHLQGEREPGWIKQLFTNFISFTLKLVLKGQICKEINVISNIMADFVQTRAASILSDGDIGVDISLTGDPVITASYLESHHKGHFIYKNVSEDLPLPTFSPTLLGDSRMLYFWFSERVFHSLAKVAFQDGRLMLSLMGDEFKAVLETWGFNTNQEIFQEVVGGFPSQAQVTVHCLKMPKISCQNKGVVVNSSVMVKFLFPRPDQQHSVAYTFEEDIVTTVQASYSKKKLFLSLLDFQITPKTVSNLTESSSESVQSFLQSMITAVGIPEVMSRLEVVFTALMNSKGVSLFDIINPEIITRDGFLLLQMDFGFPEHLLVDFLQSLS
Excerpt: (§1) The reported procedures for the inhibitory activities of ACAT (Tomoda, H.; Nishida, H.; Masuma, R.; Cao, J.; Okuda, S.; Omura, S. J. Antibiot. 1991, 44, 136-143), CETP (Tomoda, H.; Tabata, N.; Masuma, R.; Si, S.-Y.; Omura, S. J. Antibiot. 1998, 51, 618-623; D. H. Hua et al. Tetrahedron 2003, 59, 4795-4803), L1210 tumor cells (Perchellet, E. M.; Ladesich, J. B.; Magill, M. J.; Chen, Y.; Hua, D. H.; Perchellet, J. P. Anti-Cancer Drugs 1999, 10, 489-504), and APP C99-induced cell death (Jin, L.-W.; Hua, D. H.; Shie, F.-S.; Maezawa, I.; Sopher, B.; Martin, G. M. J. Mol. Neurosci. 2002, 19, 57-61) were followed.
ACAT mediates the esterification of intracellular cholesterol and is believed to play a key role in lipoprotein metabolism and atherogenesis (for a review: Suckling, K. E.; Stange, E. F. J. Lipid Res. 1985, 26, 647-671). […] The inhibition of CETP with these three compounds was then studied. CETP, a hydrophobic neutral glycoprotein, mediates the transfer of cholesteryl ester from high-density lipoprotein to low-density lipoprotein (For a review: Tall, A. R. J. Lipid Res. 1993, 34, 1255-1274). […] The N-(p-nitrophenyl)aspartamide portion of 104 was attached in order to study whether 104 was a substrate of […] (For a review: VIIIa, P.; Kaufmann, S. H.; Earnshaw, W. C. Trends Biochem. Sci. 1997, 22, 388-393). […] Compound 105 is cytotoxic to L1210 tumor cells, with IC50=30 μM. Aggarwal et al., J. Chem. Soc., Perkin Trans I (1999) 3315-3321 is incorporated by reference to the extent not inconsistent with the disclosure herewith.

[2] = test system: ACAT; assay: inhibition of ACAT; format: biochemical
[3] = test system: MC65 cells; assay: protection from APP C99-induced cell death in MC65 cells; format: cell-based; conditions: for protection of MC65 cells from death (in words): MC65 cells conditionally expressing partial APP fusion protein, absence of tetracycline; for EC50: MC65 cells in the absence of tetracycline
Excerpt: as §1, with “followed. […]” for “followed.”

[4] = test system: N/N 1003 lens epithelial cells; assay: tissue culture assay: galactitol formation from galactose in lens epithelial cells (GC/MS); format: cell-based; conditions: for inhibition at 10 µM: 10 uM inhibitor, 40 mM galactose media, lens epithelial cells, number of trials in parenthesis; for inhibition at 10 µM / % galactitol: 48 hours; for % galactitol: 40 mM galactose
Procedure: The activity of the drugs is tested in various ways, including tissue culture assays and assays testing aldose reductase inhibition. For the tissue culture assay, a lens epithelial cell line is grown in galactose with or without the drug. Cells are tested for polyol accumulation by GC/mass spectrometry. Levels of PKC are tested in homogenized cell pellets or in samples of lens, retina or sciatic nerves from treated patients. Tissue is homogenized and tested for PKCγ levels using Western blots. These procedures are described in more detail below.
The ability of the drugs to inhibit galactitol formation from galactose was also studied in N/N 1003 lens epithelial cells. Two sets of lens cells were grown in media with […] 40 mM galactose. Various concentrations of inhibitors were added initially and the cells were grown for 48 hours. The cells were lysed and galactose and galactitol were extracted out and the concentrations were determined using gas chromatography and mass spectrometry by silylating the crude extract with excess of trimethylsilyl chloride, trimethylsilyl imidazole and pyridine at 70° C. for 1 h.
40 mM galactose media was supplemented with 10 uM inhibitor and fed to lens epithelial cells for 48 hours.

[5] = target: T2, Human aldose reductase (AR) (Homo sapiens, UniProt P15121); assay: human AR inhibition assay (enzyme assay, NADPH absorption at 340 nm); format: biochemical; conditions: Table 4
T2 construct: made in house; host or cells: E. coli
Procedure: Human aldose reductase (AR) was obtained from overexpression of the human AR gene in an E coli system and was purified by column chromatography using a talon metal affinity column and eluted with a gradient mixture of Tris, NaCl buffer and imidazole solution. The human AR inhibition assay was conducted as follows. In a sample cuvette, 25 mM of D-xylose (75 mg/mL) and 0.15 mM of reduced nicotinamide adenine dinucleotide phosphate (NADPH) (4 mg/mL), and various amount of the inhibitor [in PBS (phosphate buffer saline) solution; the concentration of the inhibitor was determined using UV spectroscopy based on εmax at λmax of the drug] in 700 uL of PBS (a solution made of 1.44 g of Na2HPO4, 0.24 g KH2PO4, 0.2 g KCl, and 8 g NaCl in 1 L of distilled water) buffer (pH=6.1) solution and 200 uL of the AR enzyme (a final volume of 1 mL was obtained). The intensity of absorption of NADPH (λmax=340 nm) was measured. When xylose is reduced to xylitol, NADPH is converted into NADP and the absorption at 340 nm decreases. When AR is inhibited by the drug, the absorption at 340 nm of NADPH remains unchanged. Each assay was repeated three times and an average IC50 value was obtained.

[6] = water solubility
[7] = test system: PKC-γ; assay: galactose-fed rats: PKC-γ levels in lens and sciatic nerve (Western blot); format: in vivo, Sprague Dawley Rats; conditions: 100 mg/Kg body weight per day
Procedure: In order to test for in vivo effects of ARI's, rats were fed a 40% galactose diet for 9 days and the accumulation of galactitol was measured in lens tissue. This tissue has high aldose reductase activity and the eye has a separate vasculature. Thus, if the ARI works in the lens this is a good indication that the drug works and can penetrate to most tissues.
The specific experimental details follow. […] The rats were given food supplemented with inhibitor in the morning and then given food and water ad libitum the rest of the day. They were kept on a 12-hour on and 12-hour off light cycle. After 9 days, the rats were sacrificed with an overdose of CO2 and then eyes were taken and immediately frozen on dry ice for later polyol and PKC analyses. Experiments on all rats conformed to the ARVO resolution on the Use of Animals in Research.
The lenses were removed from the enucleated eyes and weighed. They were put in 200 μL lysis buffer (50 mM Tris, 100 mM NaCl, M-Per Pierre Zwitterionic detergent, 5 mM NaF, 1 mM Na3VO4, 40 mM β-glycerophosphate, 6 μg/mL chymotrypsin, 10 μM3,4-dichlorocoumarin, 10 μM E-64, 1 μg/mL leupeptin, 1 μg/mL pepstatin A, 1 μg/mL aprotinin, 1 mM PMSF, and 5 mM EDTA (Sigma). The lenses were then ground using a tissue grinder until they were a uniformly white solution. They were then sonicated to make certain all the cells were disrupted. The mixture was then centrifuged for 20 minutes at 0° C. at […]. The supernatant was then analyzed for protein content using […] (Pierce). Equal amounts of protein were loaded and separated on a 10% SDS polyacrylamide gel. The proteins were transferred to nitrocellulose (Midwest Scientific; pore size 0.45 μm). The western was blocked with a 3% milk solution, and then mouse anti-PKC γ (1:5000) or PKC α (1:1000) antisera (Transgenic Laboratories) were applied in a 3% milk solution overnight. […]
The effects of streptozotocin induced diabetes on PKC-γ levels in rat lens have been measured. […]

Compound: Cc1cc2c(c(=O)o1)C=C1CC[C@H](C(C)Cn3cnc(N)c4ncnc3-4)C[C@@H]1O2 (mixture of isomers) [Compound 106, (5aS,7S)-7-[(1R) and (1S)-2-(N-3-adenyl)-1-methylethyl]-3-methyl-1H,7H-5a,6,8,9-tetrahydro-1-oxopyrano[4,3-b][1]benzopyran]
- IC50 [1]: > 250 µM
- IC50 [2]: > 500 µM
- protection of MC65 cells from death (in words) [3]: protected from death
- EC50 [3]: 150 nM

Compound: Cc1cc2c(c(=O)o1)C=C1CC[C@H](C(C)CNc3ncnc4[nH]cnc34)C[C@@H]1O2 (mixture of isomers) [Compound 107, (5aS,7S)-7-[(1R) and (1S)-2-(N10-Adenyl)-1-methylethyl]-3-methyl-1H,7H-5a,6,8,9-tetrahydro-1-oxopyrano[4,3-b][1]benzopyran]
- protection of MC65 cells from death (in words) [3]: inactive
- EC50 [3]: > 3000 nM

Compound: Nc1ncnc2nc[nH]c12 [Adenine, reference compound]
- protection of MC65 cells from death (in words) [3]: no activity
- EC50 [3]: > 10000 nM

Compound: O=C(O)C(O)Cc1cc2c(c(=O)o1)C=C1CCCCC1O2 (centres unmarked) [Compound 3, 2-Hydroxy-3-{1H,7H-5a,6,8,9-tetrahydro-1-oxopyrano[4,3-b][1]benzopyran-3-yl}-propanoic acid]
- inhibition at 10 µM ([4]; Epithelial cell): < 10%
- IC50 ([5]; read-out: IC50 values obtained from the enzyme assay (aldose reductase)): > 500 µM

Compound: O=C(O)CCc1cc2c(c(=O)o1)C=C1CCCCC1O2 (centres unmarked) [Compound 5a]
- water solubility [6]: water soluble

Compound: C=C(C)[C@H]1CCC2=Cc3c(cc(CC(=O)O)oc3=O)O[C@H]2C1 [Compound 6, {(5aS,7S)-7-Isopropenyl-1H,7H-5a,6,8,9-tetrahydro-1-oxopyrano[4,3-b][1]-benzopyran-3-yl}acetic acid]
- IC50 values obtained from the enzyme assay (aldose reductase) [5]: No significant inhibition detected

Compound: CC(CO)[C@H]1CCC2=Cc3c(cc(CC(=O)O)oc3=O)O[C@H]2C1 (some centres unmarked) [Compound 7]
- IC50 values obtained from the enzyme assay (aldose reductase) [5]: No significant inhibition detected

Compound: C=C(C)[C@H]1CCC2=Cc3c(cc(C)oc3=O)O[C@H]2C1 [Compound 108]
- IC50 [2]: 167 µM
- EC50 [3]: > 10000 nM

Now from value to molecule, other results behind:

- IC50 [1]: > 100 µM
- IC50 [2]: 310 µM
Compound: CC(CO)[C@H]1CCC2=Cc3c(cc(CC(=O)OCc4ccccc4)oc3=O)O[C@H]2C1 (mixture of isomers) [Compound 102, Benzyl (5aS,7S)-{7-[(1R)- and (1S)-2-hydroxy-1-methylethyl]-1H,7H-5a,6,8,9-tetrahydro-1-oxopyrano[4,3-b][1]benzopyran-3-yl}acetate]

- IC50 [1]: 75 µM
- IC50 [2]: 150 µM
Compound: CC(CO)[C@H]1CC[C@@H]2[C@H](C1)Oc1cc(CC(=O)OCc3ccccc3)oc(=O)c1[C@H]2O (mixture of isomers) [Compound 103, Benzyl (5aS,7S,9aS,10S)-{10-hydroxy-7-[(1R) and (1S)-2-hydroxy-1-methylethyl]-1H,7H-5a,6,8,9-tetrahydro-1-oxopyrano[4,3-b][1]benzopyran-3-yl}acetate]

- IC50 [1]: > 100 µM
- IC50 [2]: 157 µM
Compound: C=C(C)[C@H]1CCC2=Cc3c(cc(CC(=O)OCc4ccccc4)oc3=O)O[C@H]2C1 [Compound 101, Benzyl (5aS,7S)-{7-isopropenyl-1H,7H-5a,6,8,9-tetrahydro-1-oxopyrano[4,3-b][1]benzopyran-3-yl}acetate]

- IC50 ([4]; Epithelial cell): 8 µM
- water solubility [6]: insoluble in water
Compound: COc1ccc2c(C(=S)N(C)CC(=O)O)cccc2c1C(F)(F)F [Tolrestat, reference compound]
- % galactitol ([4]; 0.5 uM Tolrestat): 100%
- % galactitol ([4]; 1 uM Tolrestat): 90%
- % galactitol ([4]; 7 uM Tolrestat): 53%
- inhibition at 10 µM ([4]; Epithelial cell): 95 ± 4%
- PKC-γ levels in lens epithelial cells ([7]; 40% galactose feed 9 days, FIG. 2, FIG. 3A): remained near normal
- PKC-γ levels in sciatic nerve cells ([7]; high galactose feed, FIG. 3B): normalized
